Structures can show the parent of a compound that is named as a salt.
What follows are molecules tested against αvβ1 integrin (αvβ1 expressing CHO cells) (Homo sapiens (Human), UniProt P05556+P06756) (assay: Cell adhesion assay: inhibition of αvβ1 expressing CHO cells attaching to TGFβ1LAP). Details: 1 h at 37° C., crystal violet absorbance 595 nm, read-out: αvβ1 Inhibition IC50 (nM)-range.
Assay type: cell-based
Protocol: Example B1—Cell Adhesion Assay
In order to determine the potency, the compounds were assessed for their ability to inhibit αvβ1 expressing CHO cells attach to TGFβ1LAP. Microplates were coated overnight with 2 ug/ml TGFβ1LAP at 4° C., and blocked with 2% BSA/PBS for 30 min before the assay. Cells were detached and washed in PBS. After that the cells were resuspended in DMEM at 1.0×10^6 cells/ml, fifty microliter of cell suspension and fifty microliter of compound solution were added into the plate. The plates were incubated for one hour at 37° C. in humidified 5% carbon dioxide. Non-adherent cells were removed by centrifugation top side down at 58 g for 5 min. The attached cells were fixed and stained with 0.5% crystal violet (in 20% methanol and 1% formaldehyde) and the wells washed with PBS. Crystal violet was dissolved in 2% Triton-X in PBS. The relative number of cells in each well was evaluated by the absorbance at 595 nm in a microplate reader (Tecan). IC50 values were determined by non-linear regression with four parameters (Graphpad Prism 7.01, Y=Bottom+(Top−Bottom)/(1+10^((Log IC50−X)*HillSlope)).
The compounds tested were compound samples prepared according to procedures described in the Synthetic Examples section, with the stereochemical purity as indicated in the Examples indicated for Example or Compound No. 1-62. The compounds tested were predominantly S-configuration at the alpha carbon of the amino acid scaffold, except for compounds 123, 124, and 125 which were predominantly R-configuration at the alpha carbon of the amino acid scaffold. “Example or Compound No.” in Table B-1 refers to the compound illustrated in the examples for Example or Compound Nos. 1-62 (the compounds of Examples 1-62 are labeled as Compounds 1-62 in Table 1). “Example or Compound No.” in Table B-1 refers to the compound number as indicated in Table 1 or Table 2 for Example or Compound Nos. 63-126.

αvβ1 integrin (αvβ1 expressing CHO cells), sequence (P06756 31-889): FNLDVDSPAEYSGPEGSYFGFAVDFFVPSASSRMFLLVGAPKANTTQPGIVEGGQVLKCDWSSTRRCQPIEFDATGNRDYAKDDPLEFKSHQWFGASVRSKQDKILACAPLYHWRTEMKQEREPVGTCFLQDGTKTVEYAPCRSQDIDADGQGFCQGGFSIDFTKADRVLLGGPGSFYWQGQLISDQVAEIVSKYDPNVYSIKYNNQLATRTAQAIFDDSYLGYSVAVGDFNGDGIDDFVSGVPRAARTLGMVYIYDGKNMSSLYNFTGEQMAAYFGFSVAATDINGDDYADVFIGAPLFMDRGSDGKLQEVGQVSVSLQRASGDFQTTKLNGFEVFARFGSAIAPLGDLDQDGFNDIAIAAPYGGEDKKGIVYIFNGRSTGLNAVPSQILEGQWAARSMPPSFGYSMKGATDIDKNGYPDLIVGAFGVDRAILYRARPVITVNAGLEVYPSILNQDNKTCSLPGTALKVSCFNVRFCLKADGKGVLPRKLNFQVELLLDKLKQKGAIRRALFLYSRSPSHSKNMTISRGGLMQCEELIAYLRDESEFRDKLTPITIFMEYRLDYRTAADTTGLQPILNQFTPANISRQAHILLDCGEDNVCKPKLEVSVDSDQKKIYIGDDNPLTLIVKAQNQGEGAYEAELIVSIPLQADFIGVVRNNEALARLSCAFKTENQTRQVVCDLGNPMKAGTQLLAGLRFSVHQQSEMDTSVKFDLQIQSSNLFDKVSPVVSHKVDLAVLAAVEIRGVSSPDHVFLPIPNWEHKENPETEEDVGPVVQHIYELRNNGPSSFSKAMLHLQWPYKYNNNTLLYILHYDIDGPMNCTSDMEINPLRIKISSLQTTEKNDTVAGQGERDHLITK
αvβ1 integrin (αvβ1 expressing CHO cells), sequence (P06756 891-1048 partner): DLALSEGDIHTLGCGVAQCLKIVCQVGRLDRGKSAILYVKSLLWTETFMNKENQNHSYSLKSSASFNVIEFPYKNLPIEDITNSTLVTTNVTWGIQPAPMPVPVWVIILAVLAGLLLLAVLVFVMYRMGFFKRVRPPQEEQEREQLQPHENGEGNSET
αvβ1 integrin (αvβ1 expressing CHO cells), sequence (P05556 21-798): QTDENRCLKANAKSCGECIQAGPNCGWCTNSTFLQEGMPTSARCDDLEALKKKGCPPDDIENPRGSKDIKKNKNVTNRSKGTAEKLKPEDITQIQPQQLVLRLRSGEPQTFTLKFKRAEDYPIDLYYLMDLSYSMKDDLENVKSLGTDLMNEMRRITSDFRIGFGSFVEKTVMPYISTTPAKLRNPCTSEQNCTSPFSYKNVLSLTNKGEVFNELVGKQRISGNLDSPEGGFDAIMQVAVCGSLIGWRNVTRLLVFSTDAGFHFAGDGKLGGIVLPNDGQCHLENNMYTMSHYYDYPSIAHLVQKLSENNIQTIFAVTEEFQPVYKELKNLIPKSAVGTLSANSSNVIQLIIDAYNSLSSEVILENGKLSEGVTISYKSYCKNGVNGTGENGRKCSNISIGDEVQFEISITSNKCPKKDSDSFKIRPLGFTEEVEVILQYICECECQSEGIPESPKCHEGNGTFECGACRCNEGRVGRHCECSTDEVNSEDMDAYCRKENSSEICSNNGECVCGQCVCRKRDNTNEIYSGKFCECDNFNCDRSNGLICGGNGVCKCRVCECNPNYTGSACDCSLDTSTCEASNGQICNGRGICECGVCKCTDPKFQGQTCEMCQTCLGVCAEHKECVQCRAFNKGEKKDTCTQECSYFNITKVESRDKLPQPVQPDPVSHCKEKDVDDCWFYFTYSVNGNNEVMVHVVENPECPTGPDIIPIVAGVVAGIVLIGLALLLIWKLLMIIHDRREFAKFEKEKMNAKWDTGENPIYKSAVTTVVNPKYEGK

| SMILES | IC50 |
| --- | --- |
| O=C(N[C@@H](Cc1ccc(OCCCc2ccc3c(n2)NCCC3)cc1)C(=O)O)c1c(F)cccc1F [Example 7, (S)-2-(2,6-difluorobenzamido)-3-(4-(3-(5,6,7,8-tetrahydro-1,8-naphthyridin-2-yl)propoxy)phenyl)propanoic acid] | < 50 nM |
| CC(OCCc1ccc2c(n1)NCCC2)c1ccc(C[C@H](NC(=O)c2c(Cl)cccc2Cl)C(=O)O)cc1 (stereo partly drawn) [Example 33, (2S)-2-(2,6-dichlorobenzamido)-3-(4-(1-(2-(5,6,7,8-tetrahydro-1,8-naphthyridin-2-yl)ethoxy)ethyl)phenyl)propanoic acid] | < 50 nM |
| O=C(NC(Cc1ccc(COC2CCC(Nc3ccccn3)CC2)cc1)C(=O)O)c1c(Cl)cccc1Cl [Example 31, (S)-2-(2,6-dichlorobenzamido)-3-(4-((((1s,4R)-4-(pyridin-2-ylamino)cyclohexyl)oxy)methyl)phenyl)propanoic acid trifluoroacetate] | 50 to 250 nM |
| CN1CC(NCCCCOc2ccc(C[C@H](NC(=O)c3c(Cl)cccc3Cl)C(=O)O)cc2)=NCC1=O [Example 58, (S)-2-(2,6-dichlorobenzamido)-3-(4-(4-((4-methyl-5-oxo-3,4,5,6-tetrahydropyrazin-2-yl)amino)butoxy)phenyl)propanoic acid] | > 1000 nM |
| O=C(N[C@@H](Cc1ccc(OCCCc2ccc3c(n2)NCCC3)cc1)C(=O)O)c1ccc2cn[nH]c2c1 [Example 40, (2S)-2-(1H-indazole-6-carbonylamino)-3-[4-[3-(5,6,7,8-tetrahydro-1,8-naphthyridin-2-yl)propoxy]phenyl]propanoic acid] | < 50 nM |
| Nc1cc(C(=O)N[C@@H](Cc2ccc(OCCCc3ccc4c(n3)NCCC4)cc2)C(=O)O)ccc1O [Example 11, (S)-2-(3-amino-4-hydroxybenzamido)-3-(4-(3-(5,6,7,8-tetrahydro-1,8-naphthyridin-2-yl)propoxy)phenyl)propanoic acid] | 50 to 250 nM |
| O=C(N[C@@H](CCCCCCCc1ccc2c(n1)NCCC2)C(=O)O)c1c(Cl)cccc1Cl [Example 19, (S)-2-(2,6-dichlorobenzamido)-9-(5,6,7,8-tetrahydro-1,8-naphthyridin-2-yl)nonanoic acid] | < 50 nM |
| N#Cc1ccc(Cl)c(C(=O)N[C@@H](CCCCCCCc2ccc3c(n2)NCCC3)C(=O)O)c1 [Compound 100] | < 50 nM |
| O=C(N[C@@H](Cc1ccc(OCCCc2ccc3c(n2)NCCC3)cc1)C(=O)O)c1cc(Cl)cc(Cl)c1 [Example 35, (2S)-2-[(3,5-dichlorobenzoyl)amino]-3-[4-[3-(5,6,7,8-tetrahydro-1,8-naphthyridin-2-yl)propoxy]phenyl]propanoic acid] | < 50 nM |
| O=C(N[C@@H](Cc1ccc(OCCCc2ccc3c(n2)NCCC3)cc1)C(=O)O)c1ccc2[nH]ncc2c1 [Example 42, (2S)-2-(1H-indazole-5-carbonylamino)-3-[4-[3-(5,6,7,8-tetrahydro-1,8-naphthyridin-2-yl)propoxy]phenyl]propanoic acid] | < 50 nM |
| O=C(N[C@@H](Cc1ccc(OCCCc2ccc3c(n2)NCCC3)cc1)C(=O)O)c1cc(F)ccc1Cl [Example 36, (2S)-2-[(2-chloro-5-fluoro-benzoyl)amino]-3-[4-[3-(5,6,7,8-tetrahydro-1,8-naphthyridin-2-yl)propoxy]phenyl]propanoic acid] | < 50 nM |
| O=C(NC(Cc1ccc(OCC2CCC(Nc3ccccn3)CC2)cc1)C(=O)O)c1c(Cl)cccc1Cl [Example 25, (S)-2-(2,6-dichlorobenzamido)-3-(4-(((1s,4R)-4-(pyridin-2-ylamino)cyclohexyl)methoxy)phenyl)propanoic acid] | 50 to 250 nM |
| CN1C(=O)CN=C1NCCCCOc1ccc(C[C@H](NC(=O)c2c(Cl)cccc2Cl)C(=O)O)cc1 [Example 57, (S)-2-(2,6-dichlorobenzamido)-3-(4-(4-((1-methyl-5-oxo-4,5-dihydro-1H-imidazol-2-yl)amino)butoxy)phenyl)propanoic acid] | > 1000 nM |
| O=C(N[C@@H](Cc1ccc(OCCCc2ccc3c(n2)NCCC3)cc1)C(=O)O)c1c(Cl)cncc1Cl [Example 15, (S)-2-(3,5-dichloroisonicotinamido)-3-(4-(3-(5,6,7,8-tetrahydro-1,8-naphthyridin-2-yl)propoxy)phenyl)propanoic acid] | < 50 nM |
| O=C(N[C@@H](Cc1ccc(OCCCCNC2=NCCCS2)cc1)C(=O)O)c1c(Cl)cccc1Cl [Example 60, (S)-2-(2,6-dichlorobenzamido)-3-(4-(4-((5,6-dihydro-4H-1,3-thiazin-2-yl)amino)butoxy)phenyl)propanoic acid] | < 50 nM |
| Cn1ncc2ccc(C(=O)N[C@@H](CCCCCCCc3ccc4c(n3)NCCC4)C(=O)O)cc21 [Compound 102] | 50 to 250 nM |
| Cn1cnc2ccc(C(=O)N[C@@H](Cc3ccc(OCCCc4ccc5c(n4)NCCC5)cc3)C(=O)O)cc21 [Example 2, (S)-2-(1-methyl-1H-benzo[d]imidazole-6-carboxamido)-3-(4-(3-(5,6,7,8-tetrahydro-1,8-naphthyridin-2-yl)propoxy)phenyl)propanoic acid] | < 50 nM |
| O=C(NC(Cc1ccc(COC2CC(Nc3ccccn3)C2)cc1)C(=O)O)c1c(Cl)cccc1Cl [Example 32, (S)-2-(2,6-dichlorobenzamido)-3-(4-(((1s,3R)-3-(pyridin-2-ylamino)cyclobutoxy)methyl)phenyl)propanoic acid trifluoroacetate] | 50 to 250 nM |
| O=C(N[C@@H](Cc1ccc(OCCCCNC2=NCCS2)cc1)C(=O)O)c1c(Cl)cccc1Cl [Example 62, (S)-2-(2,6-dichlorobenzamido)-3-(4-(4-((4,5-dihydrothiazol-2-yl)amino)butoxy)phenyl)propanoic acid] | < 50 nM |
| O=C(N[C@@H](CCCCCCCCNC1=NCCCS1)C(=O)O)c1c(Cl)cccc1Cl [Example 54, (S)-2-(2,6-dichlorobenzamido)-10-((5,6-dihydro-4H-1,3-thiazin-2-yl)amino)decanoic acid] | 250 to 1000 nM |
| O=C(N[C@@H](Cc1ccc(COCCCNc2ccccn2)cc1)C(=O)O)c1c(Cl)cccc1Cl [Example 30, (S)-2-(2,6-dichlorobenzamido)-3-(4-((3-(pyridin-2-ylamino)propoxy)methyl)phenyl) propanoic acid trifluoroacetate] | 250 to 1000 nM |
| O=C(N[C@@H](Cc1ccc(OCCCc2ccc3c(n2)NCCC3)cc1)C(=O)O)c1ccc2ocnc2c1 [Example 10, (S)-2-(benzo[d]oxazole-5-carboxamido)-3-(4-(3-(5,6,7,8-tetrahydro-1,8-naphthyridin-2-yl)propoxy)phenyl)propanoic acid] | < 50 nM |
| Cn1cc(-c2ccc(C(=O)N[C@@H](CCCCCCCc3ccc4c(n3)NCCC4)C(=O)O)cc2)cn1 [Compound 113] | 50 to 250 nM |
| O=C(N[C@@H](CCCCCCCCNC1=NCCCO1)C(=O)O)c1c(Cl)cccc1Cl [Example 51, (S)-2-(2,6-dichlorobenzamido)-10-((5,6-dihydro-4H-1,3-oxazin-2-yl)amino)decanoic acid] | > 1000 nM |
| O=C(N[C@@H](CCCCCCCc1ccc2c(n1)NCCC2)C(=O)O)c1cn[nH]c1-c1ccccc1 [Compound 110] | 50 to 250 nM |
| O=C(N[C@@H](Cc1ccc(N2CC(Cc3ccc4c(n3)NCCC4)C2)cc1)C(=O)O)c1c(Cl)cccc1Cl [Example 21, (S)-2-(2,6-dichlorobenzamido)-3-(4-(3-((5,6,7,8-tetrahydro-1,8-naphthyridin-2-yl)methyl)azetidin-1-yl)phenyl)propanoic acid] | > 1000 nM |
